Reference: US8252563B2, “Reductase, gene thereof and method of using the same” (Sumitomo Chemical Company, Limited, priority 2007, dated 2012)

What was measured:
[1] = system: purified invented protein (active fragment (C)); test: Substrate specificity: reduction activity of the invented protein on carbonyl compounds (NADPH absorbance decrease at 340 nm); type: biochemical, Stenotrophomonas sp. SC-1 strain
[2] = Optimal pH of the reduction activity on ethyl benzoylformate; type: biochemical; conditions: ethyl benzoylformate 10 mM, NADPH 0.5 mM, pH 5.5 to 10, 30° C., 1 minute, 340 nm
[3] = substrate 1 mM, NADPH 0.5 mM, 100 mM phosphate buffer pH 7, 30° C., 5 minutes, relative value, activity on ethyl benzoylformate = 100%

## O=C(O)CCC(=O)c1ccccc1 [3-Benzoylpropionic acid]
[1]; [3]
  Relative activity (%): 3.3%

## CCOC(=O)C(=O)c1ccccc1 [Eethyl benzoylformate, ethyl benzoylformate]
[1]; [3]
  Relative activity (%): 100%

## CCOC(=O)CC(=O)CCl [Ethyl 4-chloro-3-oxobutyrate]
[1]; pH 7
  Relative activity (%): 0.5%

## CCOC(=O)C(=O)CCc1ccccc1 [Ethyl 4-phenyl2-oxobutyrate]
[1]; [3]
  Relative activity (%): 1.5%

## CCOC(=O)C(C)=O [Ethyl pyruvate]
[1]; [3]
  Relative activity (%): 33.7%

## COC(=O)CC(=O)CBr [Methyl 4-bromo-3-oxobutyrate]
[1]; [3]
  Relative activity (%): 3.9%

## CCC=O [Propionaldehyde]
[1]; [3]
  Relative activity (%): 8.6%

B1: invented protein (active fragment (C)): purified reductase (SEQ ID NO:1) of Stenotrophomonas sp. SC-1, expressed in E. coli HB101 with plasmid pTrcRs (protein, listed as Stenotrophomonas sp.)
chain: MTATRELGRSGLHVAPIAFGGNVFGWSADEKTSFALLDAFVEAGFNLVDTADVYSAWVPGNQGGESETILGRWFKHSGKRDKVVLATKVAKWSEHPGLSADNITAAVEDSLRRLQTDVIDLYQAHEDDESTPLESTLAAFGRLIEQGKVRAIGASNYSAERLSDALKVSADYKLPRYETLQPEYNLYDRAGYEAGLEAVVRDAQLGVISYYSLASGFLSGKYRSAADAGKSSARGQSVVDKYVNPRGLRILGALDDVASTHGVSPSQIAIAWLIARPGITAPIVSATSVEQLNDVLAAAKVALSAQEVQQLDAASAEQA
[2]
  optimal pH: 7.0
